From ChEMBL document CHEMBL4304797, “Discovery of GSK2798745: A Clinical Candidate for Inhibition of Transient Receptor Potential Vanilloid 4 (TRPV4)” (ACS Med Chem Lett, 2019)
pIC50: −log10 of the molar value.

How the values were obtained:
[1] = molecular target: Transient receptor potential cation channel subfamily V member 4 (Homo sapiens, UniProt Q9HBA0); assay: Inhibition of human TRPV4 expressed in baculovirus infected HEK/MSR 2 cells pre-incubated for 10 mins followed by GSK634775A addition by Fura-2 dye based FLIPR assay
Sequence of Transient receptor potential cation channel subfamily V member 4 (Homo sapiens, UniProt Q9HBA0) (Q9HBA0 whole entry): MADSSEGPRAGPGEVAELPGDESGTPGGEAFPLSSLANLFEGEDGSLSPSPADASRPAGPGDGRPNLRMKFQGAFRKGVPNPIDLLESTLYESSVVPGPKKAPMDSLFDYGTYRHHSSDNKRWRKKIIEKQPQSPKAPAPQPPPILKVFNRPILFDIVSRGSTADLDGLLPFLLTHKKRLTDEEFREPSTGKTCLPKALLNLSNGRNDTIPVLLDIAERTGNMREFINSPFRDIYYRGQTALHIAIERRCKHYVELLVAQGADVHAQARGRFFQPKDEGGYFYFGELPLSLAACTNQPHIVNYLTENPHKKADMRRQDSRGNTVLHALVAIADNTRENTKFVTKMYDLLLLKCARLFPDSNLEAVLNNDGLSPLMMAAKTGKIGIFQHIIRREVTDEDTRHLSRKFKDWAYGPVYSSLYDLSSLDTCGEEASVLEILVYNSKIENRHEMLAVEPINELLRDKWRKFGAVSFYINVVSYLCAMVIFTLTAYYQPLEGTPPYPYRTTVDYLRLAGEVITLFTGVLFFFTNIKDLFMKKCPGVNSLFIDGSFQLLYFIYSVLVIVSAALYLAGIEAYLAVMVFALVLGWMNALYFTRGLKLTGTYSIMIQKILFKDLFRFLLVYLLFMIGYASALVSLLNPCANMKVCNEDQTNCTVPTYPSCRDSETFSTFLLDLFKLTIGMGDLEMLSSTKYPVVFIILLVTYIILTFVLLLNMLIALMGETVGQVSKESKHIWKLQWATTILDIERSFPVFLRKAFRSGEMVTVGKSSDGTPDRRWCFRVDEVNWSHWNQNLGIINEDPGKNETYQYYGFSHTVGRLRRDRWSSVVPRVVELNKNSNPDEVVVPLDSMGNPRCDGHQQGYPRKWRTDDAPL

[2] = Unbound clearance in Sprague-Dawley rat; assay type: ADME; conditions: in vivo
[3] = Lipophilicity, chromatographic logD of compound at pH 7.4; conditions: buffer
[4] = Mean residence time in Sprague-Dawley rat at 1 mg/kg, iv measured after 24 hrs by HPLC-MS/MS analysis; assay type: ADME, organism-based; conditions: in vivo
[5] = Clearance in Sprague-Dawley rat at 1 mg/kg, iv measured after 24 hrs by HPLC-MS/MS analysis; assay type: ADME, organism-based; conditions: in vivo
[6] = Volume of distribution at steady state in Sprague-Dawley rat at 1 mg/kg, iv measured after 24 hrs by HPLC-MS/MS analysis; assay type: ADME, organism-based; conditions: in vivo, read-out: Vdss
[7] = Oral bioavailability in Sprague-Dawley rat at 2 mg/kg measured after 24 hrs by HPLC-MS/MS analysis; assay type: ADME, organism-based; conditions: in vivo
[8] = Unbound fraction in Sprague-Dawley rat plasma; assay type: ADME, cell-free
[9] = molecular target: Transient receptor potential cation channel subfamily V member 4 (Rattus norvegicus, UniProt Q9ERZ8); assay: Inhibition of rat TRPV4 expressed in baculovirus infected HEK/MSR 2 cells pre-incubated for 10 mins followed by GSK634775A addition by Fura-2 dye based FLIPR assay
Sequence of Transient receptor potential cation channel subfamily V member 4 (Rattus norvegicus, UniProt Q9ERZ8) (Q9ERZ8 whole entry): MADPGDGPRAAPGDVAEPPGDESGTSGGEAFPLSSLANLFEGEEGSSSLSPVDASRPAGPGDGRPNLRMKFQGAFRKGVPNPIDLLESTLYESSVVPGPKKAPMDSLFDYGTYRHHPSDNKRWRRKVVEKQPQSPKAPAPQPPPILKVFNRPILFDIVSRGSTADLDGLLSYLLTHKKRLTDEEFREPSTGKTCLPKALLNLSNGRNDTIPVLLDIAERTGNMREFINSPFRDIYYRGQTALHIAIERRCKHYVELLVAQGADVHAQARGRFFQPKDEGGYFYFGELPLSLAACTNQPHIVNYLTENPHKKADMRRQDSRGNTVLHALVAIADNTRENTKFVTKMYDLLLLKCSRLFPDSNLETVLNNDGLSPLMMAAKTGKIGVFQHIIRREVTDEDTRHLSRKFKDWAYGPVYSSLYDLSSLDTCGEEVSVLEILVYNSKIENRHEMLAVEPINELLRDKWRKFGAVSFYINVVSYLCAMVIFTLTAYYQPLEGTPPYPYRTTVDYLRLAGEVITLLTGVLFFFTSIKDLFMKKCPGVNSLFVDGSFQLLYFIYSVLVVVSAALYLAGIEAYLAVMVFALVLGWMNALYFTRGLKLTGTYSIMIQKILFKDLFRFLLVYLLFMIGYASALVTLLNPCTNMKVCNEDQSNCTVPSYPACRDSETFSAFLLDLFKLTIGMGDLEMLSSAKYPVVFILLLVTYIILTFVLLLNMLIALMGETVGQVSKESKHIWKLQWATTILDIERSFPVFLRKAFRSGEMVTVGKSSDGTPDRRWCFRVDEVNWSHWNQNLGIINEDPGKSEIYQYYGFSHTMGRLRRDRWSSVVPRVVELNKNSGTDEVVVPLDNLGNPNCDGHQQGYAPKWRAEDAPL

[10] = Unbound volume of distribution at steady state in Sprague-Dawley rat; assay type: ADME; conditions: in vivo

SMILES | pIC50 [1] | CL free [2] [mL/min/kg] | ChromLogD [3] | MRT [4] [h] | clearance [5] [mL/min/kg] | Vd [6] [L/kg] | bioavailability [7] [%] | fraction unbound [8] | pIC50 [9] | Vduss [10] [L/kg]
Cc1cnc(N2C[C@@]3(CCC[C@](C)(Cn4cnc5ccc(C#N)cc54)C3)OC2=O)cn1 | 7.22 | – | 4.2 | – | – | – | – | – | – | –
COc1ccccc1N1C[C@@]2(CCC[C@H](Cn3cnc4ccc(C#N)cc43)C2)OC1=O | 6.47 | – | 4.2 | – | – | – | – | – | – | –
CC(C)(C)CN1C[C@@]2(CCC[C@](C)(Cn3cnc4ccc(C#N)cc43)C2)OC1=O | 9.30 | 450 | 4.6 | 0.5 | 63 | 2.1 | 32 | 0.14 | – | –
CCOc1cnc(N2C[C@@]3(CCC[C@](C)(Cn4cnc5ccc(C#N)cc54)C3)OC2=O)cn1 | 8.38 | 460 | 5.5 | 5.2 | 17 | 5.4 | 100 | 0.037 | – | –
CCOc1ccc(N2C[C@@]3(CCC[C@H](Cn4cnc5ccc(C#N)cc54)C3)OC2=O)cc1 | 6.85 | – | 4.8 | – | – | – | – | – | – | –
C[C@]1(Cn2cnc3ccc(C#N)cc32)CCC[C@@]2(CN(c3ccccc3Cl)C(=O)O2)C1 | 8.60 | – | 4.8 | – | – | – | – | – | – | –
CCOc1ccc(N2C[C@@]3(CCC[C@](C)(Cn4cnc5ccc(C#N)cc54)C3)OC2=O)nn1 | 7.22 | – | – | 1.9 | 14 | – | – | – | – | –
C[C@]1(Cn2cnc3ccc(C#N)cc32)CCC[C@@]2(CN(c3cnc(C4CC4)cn3)C(=O)O2)C1 | 8.82 | 340 | 5.3 | – | – | – | – | – | – | –
Cc1ccccc1N1C[C@@]2(CCC[C@](C)(Cn3cnc4ccc(C#N)cc43)C2)OC1=O | 8.77 | – | 4.8 | – | – | – | – | – | – | –
C[C@]1(Cn2cnc3ccc(C#N)cc32)CCC[C@@]2(CN(c3ccccc3)C(=O)O2)C1 | 7.31 | – | – | – | – | – | – | – | – | –
CC(C)(C)CN1C[C@@]2(CCC[C@H](Cn3cnc4ccc(C#N)cc43)C2)OC1=O | 7.80 | 200 | 4.5 | 0.7 | 64 | 2.6 | 63 | 0.32 | 8.26 | 8.1
CCOc1cccc(N2C[C@@]3(CCC[C@H](Cn4cnc5ccc(C#N)cc54)C3)OC2=O)c1 | 7.13 | – | 5 | – | – | – | – | – | – | –
Cc1ccccc1N1C[C@@]2(CCC[C@H](Cn3cnc4ccc(C#N)cc43)C2)OC1=O | 6.51 | – | 4.6 | – | – | – | – | – | – | –
N#Cc1ccc2ncn(C[C@H]3CCC[C@]4(C3)CN(c3cccc(Cl)c3)C(=O)O4)c2c1 | 6.62 | – | 5.3 | – | – | – | – | – | – | –
CCOc1ccc(N2C[C@@]3(CCC[C@](C)(Cn4cnc5ccc(C#N)cc54)C3)OC2=O)cn1 | 8.51 | – | – | 1.6 | 24 | – | – | 0.031 | – | –
CC(C)(C)c1cnc(N2C[C@@]3(CCC[C@](C)(Cn4cnc5ccc(C#N)cc54)C3)OC2=O)cn1 | 8.92 | – | 6.3 | – | – | – | – | – | – | –
N#Cc1ccc2ncn(C[C@H]3CCC[C@]4(C3)CN(c3ccc(F)cc3)C(=O)O4)c2c1 (racemic) | 5.72 | 350 | 4.5 | 3.1 | 23 | 4 | 100 | 0.065 | – | 61
CC(C)(C)N1C[C@@]2(CCC[C@H](Cn3cnc4ccc(C#N)cc43)C2)OC1=O (racemic) | 5.28 | – | 4 | 0.5 | 55 | 1.8 | 44 | – | – | –
CC(C)(O)c1cnc(N2C[C@@]3(CCC[C@](C)(Cn4cnc5ccc(C#N)cc54)C3)OC2=O)cn1 [GSK2798745] | 8.74 | 79 | 4 | 4.9 | 6.5 | 1.9 | 59 | 0.082 | 8.80 | –

Further lines, results first:

pIC50 [1] | CL free [2] [mL/min/kg] | ChromLogD [3] | MRT [4] [h] | clearance [5] [mL/min/kg] | Vd [6] [L/kg] | bioavailability [7] [%] | fraction unbound [8] | pIC50 [9] | Vduss [10] [L/kg] | SMILES
7.85 | 400 | 4.8 | – | – | – | – | – | – | – | COc1cnc(N2C[C@@]3(CCC[C@](C)(Cn4cnc5ccc(C#N)cc54)C3)OC2=O)cn1
7.32 | – | 5.7 | – | – | – | – | – | – | – | C[C@]1(Cn2cnc3ccc(C#N)cc32)CCC[C@@]2(CN(c3cccc(Cl)c3)C(=O)O2)C1
6.27 | – | 4.2 | – | – | – | – | – | – | – | N#Cc1ccc2ncn(C[C@H]3CCC[C@]4(C3)CN(c3ccccc3F)C(=O)O4)c2c1
8.92 | 720 | 4.6 | 1 | 26 | 1.4 | 100 | 0.036 | – | – | COc1ccccc1N1C[C@@]2(CCC[C@](C)(Cn3cnc4ccc(C#N)cc43)C2)OC1=O
8.80 | – | 5.3 | – | – | – | – | – | – | – | CCOc1cccc(N2C[C@@]3(CCC[C@](C)(Cn4cnc5ccc(C#N)cc54)C3)OC2=O)c1
7.20 | – | 4.3 | – | – | – | – | – | – | – | N#Cc1ccc2ncn(C[C@H]3CCC[C@]4(C3)CN(c3ccccc3Cl)C(=O)O4)c2c1
6.09 | – | 4.6 | – | – | – | – | – | – | – | N#Cc1ccc2ncn(C[C@H]3CCC[C@]4(C3)CN(c3ccccc3)C(=O)O4)c2c1
8.28 | – | 4.9 | – | – | – | – | – | – | – | C[C@]1(Cn2cnc3ccc(C#N)cc32)CCC[C@@]2(CN(c3ccccc3F)C(=O)O2)C1
8.28 | – | 5.4 | 0.9 | 140 | 7.2 | 29 | – | – | – | CCOc1ccc(N2C[C@@]3(CCC[C@](C)(Cn4cnc5ccc(C#N)cc54)C3)OC2=O)cc1
7.02 | – | 4.9 | 2.8 | 39 | 6.5 | 100 | – | – | – | C[C@]1(Cn2cnc3ccc(C#N)cc32)CCC[C@@]2(CN(c3ccc(F)cc3)C(=O)O2)C1
< 4.60 | – | 4.6 | 0.3 | 70 | 1.1 | 8 | – | – | – | CC(C)(C)CN1C[C@@]2(CCC[C@H](C(C)(C)n3cnc4ccc(C#N)cc43)C2)OC1=O (racemic)
